What all share (type): cell-based, human
The test system of experiment [1] is HT-29 (colorectal carcinoma, B-RafV600E) cells. As to the kind of experiment: Cell proliferation (Alamar Blue) assay, HT-29. The conditions noted are these: Homo sapiens, HT-29, HT29 cells. The method in brief: (§1)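 Cells seeded at 5000/well and allowed 16-24 h at 37° C./5% CO2, then exposed to 3-fold serial dilutions (typically 0.0005 to 10 uM) for 72 h. Viability read by Alamar Blue (1×, 1-3 h) fluorescence at 540/590 nm; IC50 from variable-slope sigmoidal fit.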
Background: Resazurin is reduced to fluorescent resorufin, in cell work by metabolically active cells.

In experiment [2] the test system is HCT116 (colorectal carcinoma, K Ras G13D) cells. The experiment is described as follows: Cell proliferation (Alamar Blue) assay, HCT116. The settings on record: Homo sapiens, HCT-116, HCT116 cells. The method in brief: as §1
In experiment [3] the test system is phosphorylation of RSK1(S380) (the downstream target of ERK1/2). The experiment is described as follows: Phospho-RSK1(S380) ELISA assay in HT-29 cells. The settings on record: Homo sapiens, HT-29, HT29 cells, read-out: Mechanistic Cell Assay RSK1 Phos HT29 IC50. The method in brief:
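IC50 values derive from a variable-slope sigmoidal fit of sandwich-ELISA signal (450 nm) for RSK1 Ser380 phosphorylation. The cells were B-RafV600E HT-29 colorectal line, exposed to serially diluted compound for 2 h after overnight seeding, then lysed at 4° C.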
A general note: An ELISA detects its analyte on a solid surface through an enzyme-linked reagent.

Read-outs that look alike come from different tables or passages of the source. Some results are limits rather than exact numbers.

`O=C(Nc1cnn(-c2ccnc(Nc3ccccc3)n2)c1)N[C@H](CO)c1cccc(Cl)c1` [Example 12, (S)-1-(1-(3-chlorophenyl)-2-hydroxy-ethyl)-3-(1-(2-(phenyl-amino)pyrimidin-4-yl)-1H-pyrazol-4-yl) urea]: the IC50 in experiment [1], in experiment [2] and in experiment [3] (phospho-RSK1(S380)) was > 2500 nM in each case.
On to `Cc1cnc(Nc2cccnc2)nc1-n1cc(NC(=O)N[C@H](CO)c2cccc(Cl)c2)cn1` [Example 23, (S)-1-(1-(3-chlorophenyl)-2-hydroxy-ethyl)-3-(1-(5-methyl-2-(pyridin-3-yl-amino)pyrimidin-4-yl)-1H-pyrazol-4-yl)urea], for which the half-maximal inhibitory concentration (IC50) (as a rule, the midpoint of a concentration-inhibition curve) is 500 to 2500 nM in experiment [1], > 2500 nM in experiment [2] and > 2500 nM in experiment [3] (phospho-RSK1(S380)).
On to `Cc1cnc(Nc2ccc(F)cc2Cl)nc1-n1cnc(C(=O)NCc2cccc(Cl)c2CO)c1` [Example 329, N-(3-chloro-2-(hydroxymethyl)benzyl)-1-(2-((2-chloro-4-fluorophenyl)amino)-5-methylpyrimidin-4-yl)-1H-imidazole-4-carboxamide], for which the figures for the IC50 in experiment [1], in experiment [2] and in experiment [3] were ≤ 100 nM, 250 to 500 nM and ≤ 100 nM, respectively.
Consider `Cc1cnc(NC2CCOCC2)nc1-n1cnc(C(=O)NC(CO)c2cccc(Cl)c2)c1` (stereo not drawn) [Compound 201, N-(1-(3-chlorophenyl)-2-hydroxyethyl)-1-(5-methyl-2-((tetrahydro-2H-pyran-4-yl)amino)pyrimidin-4-yl)-1H-imidazole-4-carboxamide], for which the IC50 was ≤ 100 nM in experiment [1], 500 to 2500 nM in experiment [2] and 100 to 250 nM in experiment [3] (phospho-RSK1(S380)).
On the same counts, the results for `Cc1cnc(Nc2ccc(F)cc2)nc1-n1ccc(C(=O)NC(CO)c2ccccc2)c1` (stereo not drawn) [Example 114, 1-(2-((4-fluoro-phenyl)amino)-5-methyl-pyrimidin-4-yl)-N-(2-hydroxy-1-phenylethyl)-1H-pyrrole-3-carboxamide] are 500 to 2500 nM, 250 to 500 nM and 100 to 250 nM.
For `Cc1cccc([C@@H](CO)NC(=O)c2ccn(-c3nc(N[C@H]4CCOC4)ncc3C)c2)n1` [Example 207, N-((S)-2-hydroxy-1-(6-methylpyridin-2-yl)ethyl)-1-(5-methyl-2-(((S)-tetrahydrofuran-3-yl)amino)pyrimidin-4-yl)-1H-pyrrole-3-carboxamide] the same measures were 250 to 500 nM, > 2500 nM and 500 to 2500 nM.
For the compound `Cc1cnc(NC2CCOC2)nc1-n1ccc(C(=O)N[C@H](CO)c2ccc(F)c(Cl)c2)c1` (stereo partly drawn) [Example 157, N-((S)-1-(3-chloro-4-fluorophenyl)-2-hydroxy-ethyl)-1-(5-methyl-2-((tetrahydro-furan-3-yl)amino)pyrimidin-4-yl)-1H-pyrrole-3-carboxamide], the results for the 50% inhibitory concentration (IC50) in experiment [1], in experiment [2] and in experiment [3] (phospho-RSK1(S380)) were 250 to 500 nM, 500 to 2500 nM and 250 to 500 nM, respectively.
In the case of `Cc1cnc(Nc2ccc(F)cc2)cc1-n1ccc(C(=O)NC(CN)c2cccc(Cl)c2)c1` (stereo not drawn) [Cmpd 159, N-(2-amino-1-(3-chloro-phenyl)ethyl)-1-(2-((4-fluoro-phenyl)amino)-5-methyl-pyridin-4-yl)-1H-pyrrole-3-carboxamide], the IC50 in experiment [1], in experiment [2] and in experiment [3] (phospho-RSK1(S380)) was 500 to 2500 nM in each case.
With `Cc1cnc(Nc2ccc(F)cc2Cl)nc1-n1ccc(C(=O)NC(CO)c2ccccc2)c1` (stereo not drawn) [Example 32, 1-(2-((2-chloro-4-fluorophenyl)amino)-5-methyl-pyrimidin-4-yl)-N-(2-hydroxy-1-phenylethyl)-1H-pyrrole-3-carboxamide], the 50% inhibitory concentration (IC50) in experiment [1] is > 2500 nM; in experiment [2], > 2500 nM; in experiment [3] (phospho-RSK1(S380)) it was 500 to 2500 nM.
As for `Cc1cnc(Nc2ccc3c(c2)OCO3)nc1-n1ccc(C(=O)N[C@H](CO)c2ccccc2)c1` [Example 60, (S)-1-(2-(benzo[d][1,3]dioxol-5-ylamino)-5-methyl-pyrimidin-4-yl)-N-(2-hydroxy-1-phenylethyl)-1H-pyrrole-3-carboxamide], the half-inhibitory concentration (IC50) in experiment [1] is ≤ 100 nM; in experiment [2], 100 to 250 nM; in experiment [3] (phospho-RSK1(S380)), ≤ 100 nM.
As for `COc1c(F)cccc1Nc1ncc(C)c(-n2ccc(C(=O)NC(CO)c3cccc(Cl)c3)c2)n1` (stereo not drawn) [Example 143, N-(1-(3-chloro-phenyl)-2-hydroxy-ethyl)-1-(2-((3-fluoro-2-methoxy-phenyl)amino)-5-methyl-pyrimidin-4-yl)-1H-pyrrole-3-carboxamide], the IC50 in experiment [1] fell in the range of 500 to 2500 nM; in experiment [2], 250 to 500 nM; in experiment [3] (phospho-RSK1(S380)), 250 to 500 nM.
Consider `O=C(N[C@H](CO)c1cccc(Cl)c1)c1cn(-c2ccnc(NC3CC3)c2)cn1` [Example 116, (S)-N-(1-(3-chlorophenyl)-2-hydroxy-ethyl)-1-(2-(cyclopropyl-amino)pyridin-4-yl)-1H-imidazole-4-carboxamide], for which the IC50 in experiment [1] is > 2500 nM; in experiment [2], > 2500 nM; in experiment [3] (phospho-RSK1(S380)), 500 to 2500 nM.
As to `Cc1cnc(NC2CCOCC2)nc1-n1cnc(C(=O)NCc2cccc(CO)c2Cl)c1` [Example 335, N-(2-chloro-3-(hydroxymethyl)benzyl)-1-(5-methyl-2-((tetrahydro-2H-pyran-4-yl)amino)pyrimidin-4-yl)-1H-imidazole-4-carboxamide], the half-inhibitory concentration (IC50) in experiment [1] is 250 to 500 nM; in experiment [2] it was > 2500 nM; in experiment [3] it was 100 to 250 nM.
For `Cc1cnc(NC2CCOCC2)nc1-n1cnc(C(=O)N[C@H](CN)c2cccc(Cl)c2)c1` [Cmpd 225a], the IC50 in experiment [1], in experiment [2] and in experiment [3] (phospho-RSK1(S380)) was ≤ 100 nM in each case.
Take `Cc1cnc(Nc2cccnc2)cc1-n1ccc(C(=O)NC(CO)c2ccc(F)c(Cl)c2)c1` (stereo not drawn) [Example 171, N-(1-(3-chloro-4-fluorophenyl)-2-hydroxyethyl)-1-(5-methyl-2-(pyridin-3-ylamino)pyridin-4-yl)-1H-pyrrole-3-carboxamide]: the figures for the half-maximal inhibitory concentration (IC50) in experiment [1], in experiment [2] and in experiment [3] (phospho-RSK1(S380)) were 500 to 2500 nM, > 2500 nM and > 2500 nM, respectively.
As to `O=C(NC(CO)c1cccc(Cl)c1)c1cn(-c2cc(Nc3ccccc3)ncc2Cl)cn1` (stereo not drawn) [Cmpd 106, 1-(5-chloro-2-(phenyl-amino)pyridin-4-yl)-N-(1-(3-chlorophenyl)-2-hydroxy-ethyl)-1H-imidazole-4-carboxamide], the IC50 was 500 to 2500 nM in experiment [1], > 2500 nM in experiment [2] and 100 to 250 nM in experiment [3] (phospho-RSK1(S380)).
As for `Cc1cnc(NC2CCOCC2)nc1-n1cnc(C(=O)NCc2cccc(Cl)c2CCO)c1` [Example 334, N-(3-chloro-2-hydroxyethylbenzyl)-1-(5-methyl-2-((tetrahydro-2H-pyran-4-yl)amino)pyrimidin-4-yl)-1H-imidazole-4-carboxamide], the IC50 in experiment [1], in experiment [2] and in experiment [3] was ≤ 100 nM each time.
On to `Cc1cnc(Nc2ccccc2)cc1-n1cnc(C(=O)NC(CO)c2cccc(Cl)c2)c1` (stereo not drawn) [Example 180, N-(1-(3-chlorophenyl)-2-hydroxyethyl)-1-(5-methyl-2-(phenylamino)pyridin-4-yl)-1H-imidazole-4-carboxamide], for which the half-inhibitory concentration (IC50) in experiment [1] was 500 to 2500 nM; in experiment [2], > 2500 nM; in experiment [3] (phospho-RSK1(S380)), 250 to 500 nM.
For `Cc1cnc(Nc2ccc(F)cc2)nc1-n1cnc(C(=O)NC(CO)c2cccc(Cl)c2)c1` (stereo not drawn) [Example 155, N-(1-(3-chlorophenyl)-2-hydroxy-ethyl)-1-(2-((4-fluoro-phenyl)amino)-5-methyl-pyrimidin-4-yl)-1H-imidazole-4-carboxamide] the same measures were 250 to 500 nM, 500 to 2500 nM and 100 to 250 nM.
Regarding `Cc1cnc(NC(C)c2ccccc2)nc1-n1ccc(C(=O)NC(CO)c2ccccc2)c1` (stereo not drawn) [Example 117, N-(2-hydroxy-1-phenyl-ethyl)-1-(5-methyl-2-((1-phenylethyl)amino)pyrimidin-4-yl)-1H-pyrrole-3-carboxamide], the half-inhibitory concentration (IC50) in experiment [1] is > 2500 nM; in experiment [2], > 2500 nM; in experiment [3] (phospho-RSK1(S380)), 500 to 2500 nM.
Consider `Cc1cnc(Nc2ccc(F)cc2Cl)nc1-n1ccc(C(=O)NC(COC(=O)C(N)CC(C)C)c2ccccc2)c1` (stereo not drawn) [Example 150, 2-(1-(2-((2-chloro-4-fluorophenyl)-amino)-5-methyl-pyrimidin-4-yl)-1H-pyrrole-3-carboxamido)-2-phenylethyl 2-amino-4-methyl-pentanoate], for which the IC50 in experiment [1] is > 2500 nM; in experiment [2] it was > 2500 nM; in experiment [3] (phospho-RSK1(S380)), 500 to 2500 nM.
Consider `Cc1cnc(Nc2ccc3c(c2)OCCC3)nc1-n1ccc(C(=O)NC(CO)c2ccccc2)c1` (stereo not drawn) [Example 186, 1-(2-(chroman-7-ylamino)-5-methylpyrimidin-4-yl)-N-(2-hydroxy-1-phenylethyl)-1H-pyrrole-3-carboxamide], for which the 50% inhibitory concentration (IC50) in experiment [1] lay in the range of 500 to 2500 nM; in experiment [2] it was 250 to 500 nM; in experiment [3] (phospho-RSK1(S380)), 500 to 2500 nM.
Consider `Cc1cnc(NC2CCOCC2)nc1-n1cnc(C(=O)N[C@H](CNCCO)c2cccc(Cl)c2)c1` [Example 333, (S)-N-(1-(3-chlorophenyl)-2-((2-hydroxyethyl)amino)ethyl)-1-(5-methyl-2-((tetrahydro-2H-pyran-4-yl)amino)pyrimidin-4-yl)-1H-imidazole-4-carboxamide], for which the IC50 in experiment [1], in experiment [2] and in experiment [3] was ≤ 100 nM in each case.

The values are drawn from US11925629B2, “Heterocyclic inhibitors of ERK1 and ERK2 and their use in the treatment of cancer” (Asana Biosciences, LLC, priority 2015, dated 2024).
